Assay results taken from PMC6582051, “Identification of a natural ligand of the hazel allergen Cor a 1” (Scientific Reports, 2019).

Molecular target: T1, Cor a 1.0401 (Corylus avellana, UniProt Q9SWR4)
T1 construct: gene CORA1.0401; tagless full-length recombinant, 160 aa, E. coli (pET11a, codon-optimised synthetic gene), 15N or 13C/15N labelled
T1 sequence (Q9SWR4 2-161 limits assumed): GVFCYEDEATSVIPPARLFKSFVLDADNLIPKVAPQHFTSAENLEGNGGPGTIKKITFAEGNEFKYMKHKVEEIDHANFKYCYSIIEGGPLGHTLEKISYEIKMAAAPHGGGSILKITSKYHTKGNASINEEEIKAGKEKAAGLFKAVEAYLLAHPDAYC
Assay: 1H, […] HSQC NMR titration
Assay type: binding
Conditions: 298 K, 60 uM protein, up to equimolar ligand, 2.2% DMSO; hydrophobic pocket

O=c1c(O)c(-c2ccc(O)c(O)c2)oc2cc(O)cc(O)c12 [quercetin]
1H,15N HSQC NMR titration: amino acids that were strongest affected by quercetin binding are highlighted in red
